Test results from PubChem BioAssay (NCI).
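Following 48 hours of exposure in 96-well plates, responses at five concentrations were used to interpolate endpoints linearly. Definition used: TGI = concentration required for complete inhibition of growth.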

Key:
Experiment in all cases: DTP human tumour cell line panel, 48 h
[1] = test system: 786-0 renal
[2] = test system: A498 renal
[3] = test system: A549 NSCLC
[4] = test system: ACHN renal
[5] = test system: BT-549 breast
[6] = test system: CAKI-1 renal
[7] = test system: CCRF-CEM leukemia
[8] = test system: COLO 205 colon
[9] = test system: DU-145 prostate
[10] = test system: EKVX NSCLC
[11] = test system: HCC-2998 colon
[12] = test system: HCT-116 colon
[13] = test system: HCT-15 colon
[14] = test system: HL-60(TB) leukemia
[15] = test system: HOP-62 NSCLC
[16] = test system: HOP-92 NSCLC
[17] = test system: HS 578T breast
[18] = test system: HT29 colon
[19] = test system: IGROV1 ovarian
[20] = test system: K-562 leukemia
[21] = test system: KM12 colon
[22] = test system: LOX IMVI melanoma
[23] = test system: M14 melanoma
[24] = test system: MALME-3M melanoma
[25] = test system: MCF7 breast
[26] = test system: MDA-MB-231 breast
[27] = test system: MDA-MB-435
[28] = test system: MDA-N
[29] = test system: MOLT-4 leukemia
[30] = test system: NCI-H226 lung
[31] = test system: NCI-H23 lung
[32] = test system: NCI-H460 lung
[33] = test system: NCI-H522 lung
[34] = test system: NCI/ADR-RES ovarian
[35] = test system: OVCAR-3 ovarian
[36] = test system: OVCAR-4 ovarian
[37] = test system: OVCAR-5 ovarian
[38] = test system: OVCAR-8 ovarian
[39] = test system: PC-3 prostate
[40] = test system: RPMI-8226 leukemia
[41] = test system: SF-268 CNS
[42] = test system: SF-295 CNS
[43] = test system: SF-539 CNS
[44] = test system: SK-MEL-2 melanoma
[45] = test system: SK-MEL-28 melanoma
[46] = test system: SK-MEL-5 melanoma
[47] = test system: SK-OV-3 ovarian
[48] = test system: SN12C renal
[49] = test system: SNB-19 CNS
[50] = test system: SNB-75 CNS
[51] = test system: SR leukemia
[52] = test system: SW-620 colon
[53] = test system: T-47D breast
[54] = test system: TK-10 renal
[55] = test system: U251 CNS
[56] = test system: UACC-257 melanoma
[57] = test system: UACC-62 melanoma
[58] = test system: UO-31 renal
[59] = test system: RXF 393 renal

## [N-]=[N+]=NC1C(O)C(CO)OC1n1ccc(=O)[nH]c1=O (centres undefined)
[1]
  TGI: > 875 µM
[2]
  TGI: > 875 µM
[3]
  TGI: > 875 µM
[4]
  TGI: > 875 µM
[5]
  TGI: > 875 µM
[6]
  TGI: > 875 µM
[7]
  TGI: > 875 µM
[8]
  TGI: > 875 µM
[9]
  TGI: > 875 µM
[10]
  TGI: > 875 µM
[11]
  TGI: > 875 µM
[12]
  TGI: > 875 µM
[13]
  TGI: > 875 µM
[14]
  TGI: > 875 µM
[15]
  TGI: > 875 µM
[16]
  TGI: > 875 µM
[17]
  TGI: > 875 µM
[18]
  TGI: > 875 µM
[19]
  TGI: > 875 µM
[20]
  TGI: > 875 µM
[21]
  TGI: > 875 µM
[22]
  TGI: > 875 µM
[23]
  TGI: > 875 µM
[24]
  TGI: > 875 µM
[25]
  TGI: > 875 µM
[26]
  TGI: > 875 µM
[27]
  TGI: > 875 µM
[28]
  TGI: > 875 µM
[29]
  TGI: > 875 µM
[30]
  TGI: > 875 µM
[31]
  TGI: > 875 µM
[32]
  TGI: > 875 µM
[33]
  TGI: > 875 µM
[34]
  TGI: > 875 µM
[35]
  TGI: > 875 µM
[36]
  TGI: > 875 µM
[37]
  TGI: > 875 µM
[38]
  TGI: > 875 µM
[39]
  TGI: > 875 µM
[40]
  TGI: > 875 µM
[41]
  TGI: > 875 µM
[42]
  TGI: > 875 µM
[43]
  TGI: > 875 µM
[44]
  TGI: > 875 µM
[45]
  TGI: > 875 µM
[46]
  TGI: > 875 µM
[47]
  TGI: > 875 µM
[48]
  TGI: > 875 µM
[49]
  TGI: > 875 µM
[50]
  TGI: > 875 µM
[51]
  TGI: > 875 µM
[52]
  TGI: > 875 µM
[53]
  TGI: > 875 µM
[54]
  TGI: > 875 µM
[55]
  TGI: > 875 µM
[56]
  TGI: > 875 µM
[57]
  TGI: > 875 µM
[58]
  TGI: > 875 µM

## OCc1ccn2c1[C@@H](O)CC2
[1]
  TGI: > 100 µM
[2]
  TGI: > 100 µM
[3]
  TGI: > 100 µM
[4]
  TGI: > 100 µM
[5]
  TGI: > 100 µM
[6]
  TGI: > 100 µM
[7]
  TGI: > 100 µM
[8]
  TGI: > 100 µM
[9]
  TGI: > 100 µM
[10]
  TGI: > 100 µM
[11]
  TGI: > 100 µM
[12]
  TGI: > 100 µM
[13]
  TGI: > 100 µM
[14]
  TGI: > 100 µM
[15]
  TGI: > 100 µM
[16]
  TGI: > 100 µM
[17]
  TGI: > 100 µM
[18]
  TGI: > 100 µM
[19]
  TGI: > 100 µM
[20]
  TGI: > 100 µM
[21]
  TGI: > 100 µM
[22]
  TGI: > 100 µM
[23]
  TGI: > 100 µM
[24]
  TGI: > 100 µM
[25]
  TGI: > 100 µM
[26]
  TGI: > 100 µM
[27]
  TGI: > 100 µM
[28]
  TGI: > 100 µM
[29]
  TGI: > 100 µM
[30]
  TGI: > 100 µM
[31]
  TGI: > 100 µM
[32]
  TGI: > 100 µM
[33]
  TGI: > 100 µM
[34]
  TGI: > 100 µM
[35]
  TGI: > 100 µM
[36]
  TGI: > 100 µM
[37]
  TGI: > 100 µM
[38]
  TGI: > 100 µM
[39]
  TGI: > 100 µM
[40]
  TGI: > 100 µM
[59]
  TGI: > 100 µM
[41]
  TGI: > 100 µM
[42]
  TGI: > 100 µM
[43]
  TGI: > 100 µM
[44]
  TGI: > 100 µM
[45]
  TGI: > 100 µM
[46]
  TGI: > 100 µM
[47]
  TGI: > 100 µM
[48]
  TGI: > 100 µM
[49]
  TGI: > 100 µM
[50]
  TGI: > 100 µM
[51]
  TGI: > 100 µM
[52]
  TGI: > 100 µM
[53]
  TGI: > 100 µM
[54]
  TGI: > 100 µM
[55]
  TGI: > 100 µM
[56]
  TGI: > 100 µM
[57]
  TGI: > 100 µM

## O=C(CCc1cc(O)ccc1O)OCCc1ccccc1
[1]
  TGI: 24.5 µM
[2]
  TGI: > 100 µM
[3]
  TGI: > 100 µM
[4]
  TGI: 18.4 µM
[5]
  TGI: 26.6 µM
[6]
  TGI: 27.2 µM
[7]
  TGI: 1.94 µM
[8]
  TGI: 22.6 µM
[9]
  TGI: 41.2 µM
[10]
  TGI: 61.9 µM
[11]
  TGI: > 80.7 µM
[12]
  TGI: 27.3 µM
[13]
  TGI: 27.2 µM
[14]
  TGI: 5.92 µM
[15]
  TGI: > 100 µM
[16]
  TGI: 13 µM
[17]
  TGI: 67.7 µM
[18]
  TGI: > 100 µM
[19]
  TGI: 22.3 µM
[20]
  TGI: 30.9 µM
[21]
  TGI: > 80.6 µM
[23]
  TGI: > 61.6 µM
[24]
  TGI: 23.5 µM
[25]
  TGI: 57.3 µM
[26]
  TGI: 42.7 µM
[27]
  TGI: 24.5 µM
[28]
  TGI: 26.9 µM
[29]
  TGI: > 21 µM
[30]
  TGI: > 76.3 µM
[31]
  TGI: > 90.8 µM
[32]
  TGI: > 100 µM
[33]
  TGI: 1.78 µM
[34]
  TGI: > 100 µM
[36]
  TGI: 32.5 µM
[37]
  TGI: > 52.1 µM
[38]
  TGI: > 57.6 µM
[39]
  TGI: 18.5 µM
[40]
  TGI: > 23.2 µM
[59]
  TGI: 25.9 µM
[41]
  TGI: > 50.5 µM
[42]
  TGI: > 100 µM
[43]
  TGI: 14.9 µM
[44]
  TGI: > 100 µM
[45]
  TGI: 78.7 µM
[46]
  TGI: > 55.6 µM
[47]
  TGI: > 100 µM
[48]
  TGI: 44.9 µM
[49]
  TGI: > 100 µM
[50]
  TGI: > 100 µM
[51]
  TGI: > 100 µM
[52]
  TGI: 42.2 µM
[53]
  TGI: 64.8 µM
[54]
  TGI: 27.8 µM
[55]
  TGI: 29.1 µM
[56]
  TGI: 28.9 µM
[57]
  TGI: 33.9 µM
[58]
  TGI: 18.7 µM

## O=C(c1ccccc1)c1c(-c2ccccc2)n(-c2ccccc2)[nH]c(=O)c1=O
[1]
  TGI: > 100 µM
[2]
  TGI: > 100 µM
[3]
  TGI: > 100 µM
[4]
  TGI: > 100 µM
[5]
  TGI: 91.7 µM
[6]
  TGI: > 100 µM
[7]
  TGI: 35.5 µM
[8]
  TGI: > 100 µM
[9]
  TGI: > 100 µM
[10]
  TGI: > 100 µM
[11]
  TGI: > 100 µM
[12]
  TGI: > 100 µM
[13]
  TGI: > 100 µM
[14]
  TGI: 85 µM
[15]
  TGI: > 100 µM
[16]
  TGI: > 100 µM
[17]
  TGI: 62.1 µM
[18]
  TGI: > 100 µM
[19]
  TGI: > 100 µM
[20]
  TGI: 81.4 µM
[21]
  TGI: > 100 µM
[22]
  TGI: > 100 µM
[23]
  TGI: > 100 µM
[24]
  TGI: > 100 µM
[25]
  TGI: > 100 µM
[26]
  TGI: 84.9 µM
[27]
  TGI: > 100 µM
[28]
  TGI: > 100 µM
[29]
  TGI: > 100 µM
[30]
  TGI: > 100 µM
[31]
  TGI: > 100 µM
[32]
  TGI: > 100 µM
[33]
  TGI: 38.3 µM
[34]
  TGI: > 100 µM
[35]
  TGI: > 100 µM
[36]
  TGI: > 100 µM
[37]
  TGI: > 100 µM
[38]
  TGI: > 100 µM
[39]
  TGI: 32.9 µM
[40]
  TGI: > 100 µM
[41]
  TGI: > 100 µM
[42]
  TGI: > 100 µM
[43]
  TGI: 46.8 µM
[44]
  TGI: 65.7 µM
[45]
  TGI: > 100 µM
[46]
  TGI: > 100 µM
[47]
  TGI: > 100 µM
[48]
  TGI: > 100 µM
[49]
  TGI: > 100 µM
[51]
  TGI: > 100 µM
[53]
  TGI: > 100 µM
[54]
  TGI: > 100 µM
[55]
  TGI: > 100 µM
[56]
  TGI: > 100 µM
[57]
  TGI: 75.5 µM
[58]
  TGI: > 100 µM
